Here are results for 2 substances from patent US20170007633A1, “TREATMENT OF NEURODEGENERATIVE AND NEURODEVELOPMENTAL DISEASES BY INHIBITION OF THE a2-Na/K ATPase/a-ADDUCIN COMPLEX” (PRESIDENT AND FELLOWS OF HARVARD COLLEGE, priority 2014, published 2017).

“Also recorded” adds a separate entry of the source.

In data set [1] the test system is motor neurons co-cultured with SOD1^G93A astrocytes (Na/K ATPase). Description: co-culture of SOD1^G93A or control astrocytes with primary motor neurons, pharmacological inhibition of Na/K ATPase. To be noted: for impairment of dendrite morphology in motor neurons induced by SOD1^G93A astrocytes / motor neuron cell death induced by SOD1^G93A astrocytes: final concentration of 1 μm; for motor neuron cell death induced by SOD1^G93A astrocytes: vehicle 56%, 7 days of co-culture. As to the method: Monolayer astrocytes culture from P2 SOD1^G93A and non-transgenic littermate mice were prepared as described in Di Giorgio et al., Nat. Neurosci. 10:608-614 (2007) and Nagai et al., Nat. Neurosci. 10:615-622 (2007), each of which is incorporated by reference. Astrocytes were plated in DMEM (GIBCO) supplemented with 10% FBS containing 100 U/ml penicillin and […] for two weeks or until confluent. Once confluent, cells were replated onto glass cover slips precoated with poly-D-lysine at a density of 40,000 cells/well in a 24-well dish. For RNAi experiment astrocyte cultures were transfected with RNAi or control U6 plasmid using Lipofectamine 2000 (Invitrogen) according to the guidelines of the manufacturer four days prior to co-culturing with motor neurons.
Spinal motor neuronal cultures from E12.5 wild-type rodents were performed as described in Gingras et al., J. Neurosci. Methods 163:11-118 (2007), which is hereby incorporated by reference. Cultures were plated astrocyte monolayers at 12,000 cells/well in Neurobasal-A medium (GIBCO) supplemented with 2% B-27 serum free supplement and 0.5 mM glutamine; DMEM/F12 (3:1, v/v ratio) with a cocktail of trophic factors composed of 0.5 ng/ml glia-derived neurotrophic factor, 1 ng/ml brain-derived neurotrophic factor and 10 ng/ml ciliary neurotrophic factor (trophic factor cocktail, R&D Systems).
Motor neurons were fixed after 7 days of co-cultures with astrocytes and immunostained with Islet1, MAP2 and Hoechst 33258 and subjected to cell survival. Approximately 150 cells were counted per cover slip. For pharmacological inhibition of Na/K ATPase in co-cultures. […] For motor neuron morphology images were taken using a NIKON eclipse TE2000 epifluorescence microscope using a digital CCD camera (DIAGNOSTIC instruments) and imported into the SPOT imaging software. Approximately 40 cells were analyzed per cover slip.

Data set [2] concerns SOD1^G93A mice. In kind it is in vivo. As to the method:
Transgenic mice overexpressing mutant G93A human superoxide dismutase 1 (Jackson Laboratory stock#002726). α2-Na/K ATPase null heterozygous (provided by Dr. Jerry B. Lingrel) and C57BL6 (Charles River) were used. All analysis was done with littermate mice derived from SOD1^G93A heterozygous mating with non-transgenic wild type and heterozygous α2-Na/K ATPase mice. All animal experiments were conducted under the institutional guidelines and were approved by the Institutional Animal Care and Use Committee (IACUC).
All morphological studies were performed as described in Chandra et al., Cell 123:383-396 (2005), which is incorporated by reference. Briefly, mice were deeply anesthetized and perfused with 4% paraformaldehyde in phosphate buffer. Spinal cords were post-fixed in the same fixative for 4 hours and processed for cryoprotective embedding. Immunohistochemistry analyses were carried out on 30 um cryosections from spinal cords with the indicated antibodies. […] For lentiviral mediated RNAi a minimum of 20 sections were quantified for surviving motor neurons in the injected and non-injected ventral horns from Nissl stained and immunofluorescence labeled sections.

As for ouabain, in data set [1], the “non-cell autonomous cell death and dendrite abnormalities induced by SOD1^G93A astrocytes (FIG. 5)” value is “neuroprotective”; the “survival or morphology of motor neurons co-cultured with control (non-transgenic) astrocytes” value is reported as “did not alter survival or morphology of motor neurons; also recorded: did not alter motor neuron survival or morphology”; the “impairment of dendrite morphology in motor neurons induced by SOD1^G93A astrocytes” value is “prevented impairment of dendrite morphology”; the “motor neuron cell death induced by SOD1^G93A astrocytes” value stood at 22%.
With digoxin, in data set [1], the “non-cell autonomous cell death and dendrite abnormalities induced by SOD1^G93A astrocytes (FIG. 5)” value is “neuroprotective”; the “survival or morphology of motor neurons co-cultured with control (non-transgenic) astrocytes” value is recorded as “did not alter survival or morphology of motor neurons; also recorded: did not alter motor neuron survival or morphology”; the “impairment of dendrite morphology in motor neurons induced by SOD1^G93A astrocytes” value is “prevented impairment of dendrite morphology”; the “motor neuron cell death induced by SOD1^G93A astrocytes” value is recorded as 19%. The “motor neurons per ventral horn section” value in data set [2] (1 mg/kg intraperitoneal on a 48-hour cycle from 80 days, toward end stage (130±5 days), vehicle 4.66±0.40) amounted to 7.20±0.21. The “motor neuron survival / degeneration in SOD1^G93A mice” value in data set [2] (intraperitoneal digoxin compared to vehicle) was “protected motor neurons from degeneration; also recorded: significantly increases the number of motor neurons”.
